The source of these data is PubChem BioAssay AID1259407 (Chemical Carcinogenesis Research Information System (CCRIS), 2018).

The test system of this data set is CCRIS mutagenicity, Ames/micronucleus/aberration tests. Put plainly: CCRIS mutagenicity studies.
The mark [1] stands for this setting: Test System: AMES SALMONELLA TYPHIMURIUM, Strain/Indicator: TA98, Metabolic Activation: NONE, Method: STANDARD PLATE.
The mark [2] stands for this setting: Test System: AMES SALMONELLA TYPHIMURIUM, Strain/Indicator: TA98, Metabolic Activation: RAT, LIVER, S-9, AROCLOR 1254, Method: STANDARD PLATE.
Setting [3] is: Test System: AMES SALMONELLA TYPHIMURIUM, Strain/Indicator: TA100, Metabolic Activation: NONE, Method: STANDARD PLATE.
Setting [4] is: Test System: AMES SALMONELLA TYPHIMURIUM, Strain/Indicator: TA100, Metabolic Activation: RAT, LIVER, S-9, AROCLOR 1254, Method: STANDARD PLATE.
Setting [5] is: Test System: E. COLI, Strain/Indicator: WP2 UVRA, Metabolic Activation: NONE, Method: STANDARD PLATE.
Setting [6] is: Test System: E. COLI, Strain/Indicator: WP2 UVRA, Metabolic Activation: RAT, LIVER, S-9, AROCLOR 1254, Method: STANDARD PLATE.

Molecules are shown by their SMILES. Activity calls are given as the source filed them. The rule behind the calls is not given here.

As to `O=[N+]([O-])C(Cl)(Br)Br`, the mutagenic call runs as follows: (Test System: Ames Salmonella typhimurium, Strain/Indicator: RSJ100, Metabolic Activation: None, Method: Standard Plate) “inactive; negative”; (Test System: Ames Salmonella typhimurium, Strain/Indicator: RSJ100, Metabolic Activation: Rat, Liver, S-9, Aroclor, Method: Standard Plate) “inactive; negative”; (Test System: Ames Salmonella typhimurium, Strain/Indicator: TA98, Metabolic Activation: None, Method: Standard Plate) “inactive; negative”; (Test System: Ames Salmonella typhimurium, Strain/Indicator: TA98, Metabolic Activation: Rat, Liver, S-9, Aroclor, Method: Standard Plate) “inactive; negative”; (Test System: Ames Salmonella typhimurium, Strain/Indicator: TA100, Metabolic Activation: None, Method: Standard Plate) “inactive; negative”; (Test System: Ames Salmonella typhimurium, Strain/Indicator: TA100, Metabolic Activation: Rat, Liver, S-9, Aroclor, Method: Standard Plate) “inactive; negative”. Further, the mutagenic call reads like this: (Test System: Ames Salmonella typhimurium, Strain/Indicator: TA104, Metabolic Activation: None, Method: Standard Plate) “inactive; negative”; (Test System: Ames Salmonella typhimurium, Strain/Indicator: TA104, Metabolic Activation: Rat, Liver, S-9, Aroclor, Method: Standard Plate) “inactive; negative”; (Test System: Ames Salmonella typhimurium, Strain/Indicator: TPT100, Metabolic Activation: None, Method: Standard Plate) “inactive; negative”.

In the case of `Nc1ccc(/C=C/c2ccc(N)cc2)cc1`, the mutagenic call reads like this: (Test System: AMES SALMONELLA TYPHIMURIUM, Strain/Indicator: TA98(1,8-DNP6), Metabolic Activation: NONE, Method: STANDARD PLATE) “inactive; negative”; (Test System: AMES SALMONELLA TYPHIMURIUM, Strain/Indicator: TA98(1,8-DNP6), Metabolic Activation: S-9, Method: STANDARD PLATE) “inactive; negative”; under setting [1], “inactive; negative”; under setting [2], “active; positive”; (Test System: AMES SALMONELLA TYPHIMURIUM, Strain/Indicator: TA98, Metabolic Activation: S-9, Method: STANDARD PLATE) “active; positive”; under setting [3], “inactive; negative”. The mutagenic call by setting is: under setting [4], “inactive; negative”; (Test System: AMES SALMONELLA TYPHIMURIUM, Strain/Indicator: TA100, Metabolic Activation: S-9, Method: STANDARD PLATE) “inactive; negative”.

`O=C1Cc2cc3cc([N+](=O)[O-])ccc3cc2[C@H](O)[C@H]1O`: the mutagenic call is, setting by setting: under setting [1], “inactive; negative”; under setting [2], “inactive; negative”.

As to `O=C(CO)N(O)c1ccc(Cl)cc1`, the mutagenic call reads like this: under setting [1], “inactive; negative”; under setting [2], “inactive; negative”; under setting [3], “inactive; negative”; under setting [4], “inactive; negative”.

`CCCC(=O)C1c2cccc(O)c2C(=O)c2c(O)cccc21`: the mutagenic call is, setting by setting: (Test System: AMES SALMONELLA TYPHIMURIUM, Strain/Indicator: TA1537, Metabolic Activation: NONE, Method: STANDARD PLATE) “active; positive”; (Test System: AMES SALMONELLA TYPHIMURIUM, Strain/Indicator: TA1537, Metabolic Activation: RAT, LIVER, S-9, PHENOBARBITAL AND BETA-NAPHTHOFLAVONE, Method: STANDARD PLATE) “active; positive”; (Test System: E. COLI, Strain/Indicator: WP2, Metabolic Activation: NONE, Method: STANDARD PLATE) “inactive; negative”; (Test System: E. COLI, Strain/Indicator: WP2, Metabolic Activation: RAT, LIVER, S-9, AROCLOR 1254, Method: STANDARD PLATE) “inactive; negative”; under setting [5], “inactive; negative”; under setting [6], “inactive; negative”.

As to `FC(F)(F)C(F)(F)C(F)(F)C(F)(F)I`, the mutagenic call was “inactive; negative” (End Point: IN VITRO CHROMOSOMAL ABERRATIONS, Test System: HUMAN PERIPHERAL BLOOD LYMPHOCYTES, Metabolic Activation: NONE); “inactive; negative” (End Point: IN VITRO CHROMOSOMAL ABERRATIONS, Test System: HUMAN PERIPHERAL BLOOD LYMPHOCYTES, Metabolic Activation: RAT, LIVER, S-9, AROCLOR 1254); “inactive; negative” (Test System: AMES SALMONELLA TYPHIMURIUM, Strain/Indicator: TA98, Metabolic Activation: NONE); “inactive; negative” (Test System: AMES SALMONELLA TYPHIMURIUM, Strain/Indicator: TA98, Metabolic Activation: RAT, LIVER, S-9, AROCLOR 1254); “inactive; negative” (Test System: AMES SALMONELLA TYPHIMURIUM, Strain/Indicator: TA100, Metabolic Activation: NONE); “inactive; negative” (Test System: AMES SALMONELLA TYPHIMURIUM, Strain/Indicator: TA100, Metabolic Activation: RAT, LIVER, S-9, AROCLOR 1254). In addition, the mutagenic call (Test System: AMES SALMONELLA TYPHIMURIUM, Strain/Indicator: TA1535, Metabolic Activation: NONE) is “inactive; negative”; the mutagenic call (Test System: AMES SALMONELLA TYPHIMURIUM, Strain/Indicator: TA1535, Metabolic Activation: RAT, LIVER, S-9, AROCLOR 1254) was “inactive; negative”; the mutagenic call (Test System: AMES SALMONELLA TYPHIMURIUM, Strain/Indicator: TA1537, Metabolic Activation: NONE) is “inactive; negative”; the mutagenic call (Test System: AMES SALMONELLA TYPHIMURIUM, Strain/Indicator: TA1537, Metabolic Activation: RAT, LIVER, S-9, AROCLOR 1254) was “inactive; negative”; the mutagenic call (Test System: E. COLI, Strain/Indicator: WP2UVRA, Metabolic Activation: NONE) is “inactive; negative”; the mutagenic call (Test System: E. COLI, Strain/Indicator: WP2UVRA, Metabolic Activation: RAT, LIVER, S-9, AROCLOR 1254) is “inactive; negative”.

In the case of `O=C(O)CC[N+](=O)[O-]`, the mutagenic call reads like this: (Test System: AMES SALMONELLA TYPHIMURIUM, Strain/Indicator: TA98, Metabolic Activation: HAMSTER, LIVER, S-9, AROCLOR 1254 (30%), Method: PREINCUBATION) “inactive; negative”; (Test System: AMES SALMONELLA TYPHIMURIUM, Strain/Indicator: TA98, Metabolic Activation: NONE, Method: PREINCUBATION) “inactive; negative”; (Test System: AMES SALMONELLA TYPHIMURIUM, Strain/Indicator: TA98, Metabolic Activation: RAT, LIVER, S-9, AROCLOR 1254 (30%), Method: PREINCUBATION) “inactive; negative”; (Test System: AMES SALMONELLA TYPHIMURIUM, Strain/Indicator: TA100, Metabolic Activation: HAMSTER, LIVER, S-9, AROCLOR 1254 (30%), Method: PREINCUBATION) “active; positive”; (Test System: AMES SALMONELLA TYPHIMURIUM, Strain/Indicator: TA100, Metabolic Activation: NONE, Method: PREINCUBATION) “active; positive”; (Test System: AMES SALMONELLA TYPHIMURIUM, Strain/Indicator: TA100, Metabolic Activation: RAT, LIVER, S-9, AROCLOR 1254 (30%), Method: PREINCUBATION) “active; positive”. In addition, the mutagenic call is “inactive; negative” (Test System: CHINESE HAMSTER OVARY, Strain/Indicator: CHO-K1-BH4 (HGPRT)/6-THIOGUANINE, Metabolic Activation: NONE); “inactive; negative” (Test System: CHINESE HAMSTER OVARY, Strain/Indicator: CHO-K1-BH4 (HGPRT)/6-THIOGUANINE, Metabolic Activation: S-9); “inactive; negative” (Test System: E. COLI, Strain/Indicator: WP2 UVRA, Metabolic Activation: HAMSTER, LIVER, S-9, AROCLOR 1254, Method: STANDARD PLATE); “inactive; negative” (Test System: E. COLI, Strain/Indicator: WP2 UVRA, Metabolic Activation: HAMSTER, LIVER, S-9, Method: STANDARD PLATE); “inactive; negative” (Test System: E. COLI, Strain/Indicator: WP2 UVRA, Metabolic Activation: MOUSE, LIVER, S-9, AROCLOR 1254, Method: STANDARD PLATE); “inactive; negative” (Test System: E. COLI, Strain/Indicator: WP2 UVRA, Metabolic Activation: MOUSE, LIVER, S-9, Method: STANDARD PLATE). Besides, the mutagenic call under setting [5] is “inactive; negative”; the mutagenic call under setting [6] was “inactive; negative”; the mutagenic call (Test System: E. COLI, Strain/Indicator: WP2 UVRA, Metabolic Activation: RAT, LIVER, S-9, Method: STANDARD PLATE) was “inactive; negative”; the mutagenic call (Test System: MOUSE LYMPHOMA, Strain/Indicator: L5178Y (TK+/TK-), Metabolic Activation: NONE, Method: SUSPENSION/PLATE) was “active; positive”; the mutagenic call (Test System: MOUSE LYMPHOMA, Strain/Indicator: L5178Y (TK+/TK-), Metabolic Activation: RAT, LIVER, S-9, AROCLOR 1254, Method: SUSPENSION/PLATE) is “active; positive”.
